Holding throughout (assay type): cell-based
In experiment [1] the test system is human gastric cancer cells (SGC-7901). The experiment is described as follows: MTT tumor cell proliferation inhibition test, SGC-7901. Particulars: for IC50: Homo sapiens, read-out: Half Inhibitory Concentration IC50, SGC-7901. How it is done:
(§1) The gossypol eflornithine Schiff base compound was subjected to tumor cell proliferation inhibition test, and conventional MTT method was used.
(§2) Cell lines: human hepatoma cells (HepG2), human lung cancer cells (A-549), human gastric cancer cells (SGC-7901). The culture medium was DMEM+15% NBS+double antibody.
(§3) Sample solution preparation: after dissolving with DMSO (Merck), PBS (−) was added to obtain 100 μmol/L solution or homogeneous suspension. The solution was diluted with PBS (−) in DMSO to a final concentration of 0.1, 1, 10, 20, 40, 60, 80, 100 μmol/L.
(§4) Gossypol and eflornithine used as control solution, prepared under the same condition.
Cell culture: adherent growth Tumor cells were cultured in 1640 medium containing 10% inactivated neonatal bovine serum and penicillin, streptomycin (1 million U/L), placed in carbon dioxide incubator at 37° C., 5% CO2, and saturated humidity. Cells were treated serially passaged 2-3 times. The first culture was washed with PBS 2 times, and digested with trypsin. Fresh culture medium was added evenly, cells were adjusted to an appropriate concentration and transferred into a new culture flask. Cell in an exponential phase were chosen for the tests.
MTT Assay for Cell Viability and IC50 Determination:
Experimental Principle: Living cells mitochondria in the dehydrogenase can reduce yellow MTT to water-insoluble blue-violet product MT (MTT formazan), deposited in the cells. The amount of production is proportional to the number of living cells. […] DMSO can dissolve blue violet crystals, and the color depth is proportional to the amount contained, so the absorbance measured by the microplate reader can reflect the cell viability.
Methods: The exponential phase cells were digested and counted and seeded in 96-well plates at a density of 2×10^4/mL at 100 μl per well. After 24 hours of incubation, the cells to be tested were treated with 0.1, 1, 10, 20, 40, 60, 80, 100 μmol/L of the compounds. Each experimental group had 5 wells in each concentration, and the culture medium containing 0.4% DMSO was used as control. After 48 hours, the supernatant was discarded, and 100 μl of MTT ((2-(4,5-dimethyl-2-thiazolyl)-3,5-diphenyl-2H-[…]) (1 mg/mL) was added to each well. After another 4 hours, the supernatant was discarded, and 100 μl of DMSO was added to each well. After mixing, the absorbance was measured at 570 nm using a microplate reader. An IC50 calculation software was used to determine the half inhibitory concentration (IC50).

In experiment [2] the test system is human lung cancer cells (A-549). The experiment in a line: MTT tumor cell proliferation inhibition test, A-549. As to conditions: read-out: Half Inhibitory Concentration IC50, A549. As for the experimental part: as §1, §2, §3, §4
(§5) Cell culture: adherent growth Tumor cells were cultured in 1640 medium containing 10% inactivated neonatal bovine serum and penicillin, streptomycin (1 million U/L), placed in carbon dioxide incubator at 37° C., 5% CO2, and saturated humidity. Cells were treated serially passaged 2-3 times. The first culture was washed with PBS 2 times, and digested with trypsin. Fresh culture medium was added evenly, cells were adjusted to an appropriate concentration and transferred into a new culture flask. […]
(§6) Experimental Principle: Living cells mitochondria in the dehydrogenase can reduce yellow MTT to water-insoluble blue-violet product MT (MTT formazan), deposited in the cells. […] DMSO can dissolve blue violet crystals, and the color depth is proportional to the amount contained, so the absorbance measured by the microplate reader can reflect the cell viability.
(§7) Methods: The exponential phase cells were digested and counted and seeded in 96-well plates at a density of 2×10^4/mL at 100 μl per well. […] After 48 hours, the supernatant was discarded, and 100 μl of MTT ((2-(4,5-dimethyl-2-thiazolyl)-3,5-diphenyl-2H-[…]) (1 mg/mL) was added to each well. After another 4 hours, the supernatant was discarded, and 100 μl of DMSO was added to each well. After mixing, the absorbance was measured at 570 nm using a microplate reader. An IC50 calculation software was used to determine the half inhibitory concentration (IC50).

Experiment [3] deals with human hepatoma cells (HepG2). The experiment in a line: MTT tumor cell proliferation inhibition test, HepG2. As to conditions: read-out: Half Inhibitory Concentration IC50, HepG2. As for the experimental part:
as §1, §2, §3, §4, §5, §6, §7

Setting [4] is: SGC-7901 cells, MTT, 48 hours treatment.
Setting [5] is: A549 cells, MTT, 48 hours treatment.
The mark [6] stands for this setting: HepG2 cells, MTT, 48 hours treatment.

Structures are written as SMILES. Read-outs that look alike come from different tables or passages of the source.

As for `NCCCC(N)(C(=O)O)C(F)F` (stereo not shown) [Eflornithine], the IC50 in experiment [1] (setting [4]), in experiment [2] (setting [5]) and in experiment [3] (setting [6]) was greater than 100 µM in each case.
In the case of `Cc1cc2c(C(C)C)c(O)c(O)c(C=O)c2c(O)c1-c1c(C)cc2c(C(C)C)c(O)c(O)c(C=O)c2c1O` [Gossypol], the IC50 in experiment [1] (SGC-7901, 48 h) was found to be 19.8 ± 0.66 µM; in experiment [2] (A549, 48 h), 13 ± 0.32 µM; in experiment [3] (HepG2, 48 h), 9.55 ± 0.41 µM.
As to `Cc1cc2c(C(C)C)c(O)c(O)c(/C=N\CCCC(N)(C(=O)O)C(F)F)c2c(O)c1-c1c(C)cc2c(C(C)C)c(O)c(O)c(/C=N\CCCC(N)(C(=O)O)C(F)F)c2c1O` (stereo not shown) [gossypol eflornithine Schiff base compound], the IC50 in experiment [1] (setting [4]) is 11.1 ± 0.34 µM; in experiment [2] (setting [5]), 11.6 ± 0.2 µM; in experiment [3] (setting [6]), 20.1 ± 0.57 µM. In experiment [1] (SGC-7901 cells, MTT, comparison with gossypol), the “antitumor activity against SGC-7901 cell lines compared with gossypol” value was “better antitumor activity against SGC-7901 cell lines than gossypol”.

The record behind these values is patent US10336689B1, “Gossypol eflornithine Schiff base compound with antitumor activities and a method of preparing the same” (SHAANXI UNIVERSITY OF SCIENCE AND TECHNOLOGY, priority 2019, dated 2019).
